Some test systems named below: SNB-19 CNS; K-562 leukemia; LOX IMVI melanoma; MCF7 breast; SK-MEL-5 melanoma; NCI-H460 lung; KM12 colon; CAKI-1 renal; T-47D breast; A549 NSCLC.
Holding throughout (test): growth of human tumour cells (NCI), 48 h

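Protocol summary: plate cells (96-well), add compound at 5 concentrations, incubate 48 h, interpolate endpoints linearly. Here, GI50 denotes the concentration required for 50% inhibition of growth. TGI: total growth inhibition.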 Where only a bound is given, the exact number is not on record here.

For `NC(=S)N/N=C1\c2ccccc2-c2c(F)c(F)c(F)c(F)c21`, the GI50 with SNB-19 CNS is 11.4 µM; in the test on K-562 leukemia, 2.09 µM; in the test with LOX IMVI melanoma it was 2.34 µM; with MCF7 breast, 2.39 µM; with SK-MEL-5 melanoma it was 17.1 µM; in the test on NCI-H460 lung, 5.65 µM. In addition, the GI50 in the test with KM12 colon was 5.88 µM; with CAKI-1 renal, 2.34 µM; in the test on T-47D breast, 1.91 µM; in the test with A549 NSCLC it was 16.7 µM. Also, the TGI in the test with SNB-19 CNS is 29.2 µM; with K-562 leukemia it was 6.61 µM; with LOX IMVI melanoma, 7.64 µM; in the test on MCF7 breast it was 14.3 µM; with SK-MEL-5 melanoma, over 50.4 µM; with NCI-H460 lung, 24.7 µM. In addition, the TGI with KM12 colon was 16.3 µM; in the test with CAKI-1 renal, 7.16 µM; in the test on T-47D breast, 5.08 µM; with A549 NSCLC it was over 58.4 µM.
For the compound `Cc1ccc(C=C2C(Cl)=C(Cl)C(Cl)=C2Cl)cc1`, the GI50 was 1.33 µM with SNB-19 CNS; 0.202 µM in the test on K-562 leukemia; 0.303 µM in the test with LOX IMVI melanoma; 0.39 µM with MCF7 breast; 1.09 µM in the test on SK-MEL-5 melanoma; 1.66 µM in the test on NCI-H460 lung. In addition, the GI50 with KM12 colon was 1.15 µM; in the test on CAKI-1 renal it was 0.503 µM; with T-47D breast it was 1.02 µM; in the test on A549 NSCLC, 1.7 µM. For the same compound, the TGI turned out to be 2.68 µM in the test on SNB-19 CNS; 0.522 µM with K-562 leukemia; 0.959 µM in the test with LOX IMVI melanoma; 2.37 µM in the test on MCF7 breast; 2.41 µM in the test on SK-MEL-5 melanoma; 3.88 µM in the test on NCI-H460 lung. In addition, the TGI with KM12 colon is 2.56 µM; in the test with CAKI-1 renal it was 2.16 µM; in the test with T-47D breast, 2.79 µM; in the test on A549 NSCLC, 3.84 µM.
For `C=C1C(=O)O[C@H]2[C@H](OC(C)=O)[C@@H](C)CCCC3(C)OC3CCC3(CO3)[C@H](O)C[C@@H]12` (stereo partly specified), the GI50 was 25.7 µM with SNB-19 CNS; 12.6 µM with LOX IMVI melanoma; 5.02 µM in the test with MCF7 breast; 11.9 µM in the test with SK-MEL-5 melanoma; 12.9 µM with NCI-H460 lung; 13.6 µM with KM12 colon. The GI50 in the test with CAKI-1 renal is 12.1 µM; in the test on T-47D breast, 13.7 µM; in the test on A549 NSCLC, 19.8 µM. Also, the TGI in the test with SNB-19 CNS came to 83.1 µM; in the test on LOX IMVI melanoma, 25.2 µM; with MCF7 breast it was 28.7 µM; in the test with SK-MEL-5 melanoma, 24.9 µM; in the test on NCI-H460 lung it was 36 µM; in the test on KM12 colon, 28.5 µM. Also, the TGI in the test on CAKI-1 renal worked out at 27.8 µM; in the test with T-47D breast it was 62.5 µM; in the test on A549 NSCLC, 74.8 µM.
On to `COc1ccc(/C=C2\COc3ccc(O)c(O)c3C2=O)c(OC)c1OC`, for which the GI50 in the test with SNB-19 CNS is 3.69 µM; in the test with K-562 leukemia, 2.11 µM; in the test on LOX IMVI melanoma, 1.78 µM; in the test on MCF7 breast it was 2.65 µM; with SK-MEL-5 melanoma, 2.25 µM; in the test with NCI-H460 lung, 2.4 µM. Besides, the GI50 in the test on KM12 colon was 2.89 µM; in the test on CAKI-1 renal it was 2.42 µM; with T-47D breast, 2.58 µM; with A549 NSCLC it was 3.11 µM. For the same compound, the TGI is 15.7 µM with SNB-19 CNS; over 100 µM with K-562 leukemia; 3.49 µM in the test on LOX IMVI melanoma; 86.5 µM in the test with MCF7 breast; 5.33 µM in the test on SK-MEL-5 melanoma; 5.75 µM with NCI-H460 lung. Besides, the TGI in the test with KM12 colon was 10.8 µM; in the test with CAKI-1 renal it was 11.3 µM; with T-47D breast, 9.08 µM; in the test on A549 NSCLC, over 100 µM.
As to `CN(C)CC(=O)Nc1ccc2ncnc(Nc3ccc(Oc4cccc(C(F)(F)F)c4)c(Cl)c3)c2c1`, the GI50 in the test on SNB-19 CNS is 3.34 µM; with K-562 leukemia, 2.21 µM; in the test with LOX IMVI melanoma, 1.73 µM; with MCF7 breast, 1.53 µM; in the test with SK-MEL-5 melanoma it was 1.69 µM; with NCI-H460 lung it was 1.76 µM. Further, the GI50 was 1.91 µM in the test on KM12 colon, 1.71 µM in the test with CAKI-1 renal, 1.31 µM in the test on T-47D breast and 2.82 µM in the test with A549 NSCLC. In addition, the TGI with SNB-19 CNS turned out to be 14.4 µM; in the test with K-562 leukemia, 6.52 µM; in the test with LOX IMVI melanoma it was 3.13 µM; in the test on MCF7 breast, 3.02 µM; in the test on SK-MEL-5 melanoma it was 3.09 µM; in the test on NCI-H460 lung it was 3.45 µM. Moreover, the TGI was 4 µM with KM12 colon, 7.54 µM in the test on CAKI-1 renal, 3.74 µM in the test on T-47D breast and 10.2 µM in the test with A549 NSCLC.
On to `Cn1cc(C2=C(c3cn(-c4ccccc4)c4ccccc34)C(=O)NC2=O)c2ccccc21`, for which the GI50 is over 25 µM in the test with SNB-19 CNS; 8.75 µM with K-562 leukemia; 19.2 µM in the test on LOX IMVI melanoma; 9.3 µM with MCF7 breast; 10.8 µM in the test on SK-MEL-5 melanoma; 17.7 µM in the test on NCI-H460 lung. The GI50 is 8.12 µM in the test on KM12 colon, 16.4 µM in the test with CAKI-1 renal, 7.53 µM with T-47D breast and 11.8 µM in the test on A549 NSCLC. In addition, the TGI with SNB-19 CNS, in the test with K-562 leukemia, in the test with LOX IMVI melanoma, in the test with MCF7 breast, with SK-MEL-5 melanoma and in the test on NCI-H460 lung was over 25 µM throughout. Besides, the TGI with KM12 colon, with CAKI-1 renal, with T-47D breast and in the test with A549 NSCLC was over 25 µM in each case.
With `CC1(C)N=C(N)N=C(N)N1c1ccc(OCCCNC(=O)Nc2cccc(S(=O)(=O)F)c2)c(Cl)c1`, the GI50 with SNB-19 CNS is 1.22 µM; in the test on K-562 leukemia, 0.598 µM; in the test on LOX IMVI melanoma, 2.66 µM; with MCF7 breast it was 3.82 µM; in the test with SK-MEL-5 melanoma, 0.715 µM; with NCI-H460 lung it was 0.511 µM. Further, the GI50 in the test with KM12 colon was 4.53 µM; with CAKI-1 renal it was 30.3 µM; with T-47D breast, 35.1 µM; with A549 NSCLC, 1.69 µM. The TGI in the test with SNB-19 CNS, in the test on K-562 leukemia, in the test with LOX IMVI melanoma, in the test on MCF7 breast, in the test on SK-MEL-5 melanoma and in the test with NCI-H460 lung was over 100 µM in each case. The TGI in the test on KM12 colon, in the test on CAKI-1 renal, with T-47D breast and in the test on A549 NSCLC was over 100 µM in each case.
For the compound `O=C(NCCCl)Nc1cccnc1`, the TGI in the test on SNB-19 CNS was 80.4 µM; with K-562 leukemia, over 100 µM; with LOX IMVI melanoma, 55.3 µM; in the test with MCF7 breast, over 100 µM; in the test with SK-MEL-5 melanoma, over 100 µM; in the test on KM12 colon, 41.5 µM. For the same compound, the TGI in the test on CAKI-1 renal is 36.1 µM; in the test with T-47D breast, 59.5 µM; in the test with A549 NSCLC, 99.5 µM.
In the case of `O=C(O)c1ccc(C(O)(c2ccccc2)c2ccccc2)cc1`, the TGI in the test on SNB-19 CNS, in the test with K-562 leukemia, in the test on LOX IMVI melanoma, in the test with MCF7 breast, in the test with SK-MEL-5 melanoma and with KM12 colon was over 100 µM in each case. For the same compound, the TGI in the test with CAKI-1 renal, with T-47D breast and with A549 NSCLC was over 100 µM throughout.
As to `COc1ccc(C2CC(c3ccc(Nc4ccnc5cc(Cl)ccc45)cc3)=NN2C=O)cc1` (stereo unspecified), the GI50 in the test on SNB-19 CNS was 56.5 µM; with LOX IMVI melanoma, 2.32 µM; in the test on MCF7 breast, 8.78 µM; in the test with SK-MEL-5 melanoma, 0.617 µM; in the test on NCI-H460 lung, over 100 µM; with KM12 colon it was 16.5 µM. Further, the GI50 is over 100 µM in the test on CAKI-1 renal, 1.38 µM in the test with T-47D breast and 50.3 µM with A549 NSCLC. Also, the TGI with SNB-19 CNS was over 100 µM; in the test on LOX IMVI melanoma, 15.6 µM; in the test with MCF7 breast, over 100 µM; in the test with SK-MEL-5 melanoma, 43.2 µM; in the test on NCI-H460 lung, over 100 µM; in the test with KM12 colon, over 100 µM. Besides, the TGI is over 100 µM with CAKI-1 renal, 15 µM in the test on T-47D breast and over 100 µM with A549 NSCLC.
With `CN(C)CCCSc1ccccc1NC1=C(Cl)C(=O)C(Nc2ccccc2SCCCN(C)C)=C(Cl)C1=O`, the GI50 was 3.42 µM in the test on SNB-19 CNS; 2.08 µM in the test with K-562 leukemia; 1.39 µM in the test with LOX IMVI melanoma; 1.65 µM in the test on MCF7 breast; 1.83 µM in the test with SK-MEL-5 melanoma; 4.49 µM in the test with NCI-H460 lung. The results for the GI50 with KM12 colon, in the test on T-47D breast and with A549 NSCLC were 1.89 µM, 1.45 µM and 5.43 µM, respectively. Further, the TGI was 11.4 µM with SNB-19 CNS; 5.92 µM in the test with K-562 leukemia; 2.88 µM in the test on LOX IMVI melanoma; 3.94 µM in the test with MCF7 breast; 3.55 µM in the test with SK-MEL-5 melanoma; 16.3 µM in the test on NCI-H460 lung. Besides, the figures for the TGI in the test on KM12 colon, in the test with T-47D breast and in the test with A549 NSCLC were 4.09 µM, 3.98 µM and 17 µM, respectively.
As to `COc1c(/C=C/C=O)cc2c(c1OC)OCO2`, the TGI with SNB-19 CNS was 44.8 µM; in the test on LOX IMVI melanoma, 76 µM; in the test on MCF7 breast, over 100 µM; in the test with SK-MEL-5 melanoma, 50.3 µM; with NCI-H460 lung, over 100 µM; in the test on KM12 colon, 29.4 µM. The TGI with CAKI-1 renal is 29.1 µM; in the test on T-47D breast, over 100 µM; in the test on A549 NSCLC, over 100 µM.

Values taken from PubChem BioAssay (NCI).
